{"source": "ChEMBL document CHEMBL1649462", "about": "“Concentrations of voriconazole in healthy and inflamed lung in rats” (Antimicrob Agents Chemother, 2009)", "key": {"[1]": {"experiment": "AUC (0 to 6 hrs) in skeletal muscle of Wistar rat with LPS-induced severe inflammatory response at 6 mg/kg, iv administered as single dose after 6 hrs by microdialysis technique", "format": "ADME, organism-based", "design": "time < 6 hr, dose 6 mg/kg, route intravenous"}, "[2]": {"experiment": "AUC (0 to 6 hrs) in plasma of healthy Wistar rat at 6 mg/kg, iv administered as single dose after 6 hrs by microdialysis technique", "format": "ADME, organism-based", "design": "time < 6 hr, dose 6 mg/kg, route intravenous"}, "[3]": {"experiment": "Protein binding in male Sprague-Dawley rat plasma at 30 mg/kg, po for 6 days", "format": "ADME, organism-based", "design": "dose 30 mg/kg, route oral", "conditions": "read-out: PPB (converted)"}, "Lung [4]": {"system": "Lung", "experiment": "Free AUC (0 to 6 hrs) in lung of healthy Wistar rat at 6 mg/kg, iv administered as single dose after 6 hrs by microdialysis technique", "format": "ADME, organism-based", "design": "dose 6 mg/kg, route intravenous", "conditions": "in vivo"}, "[5]": {"experiment": "AUC (0 to 6 hrs) in plasma of Wistar rat with LPS-induced severe inflammatory response at 6 mg/kg, iv administered as single dose after 6 hrs by microdialysis technique", "format": "ADME, organism-based", "design": "time < 6 hr, dose 6 mg/kg, route intravenous"}, "[6]": {"experiment": "Cmax in plasma of Wistar rat with LPS-induced severe inflammatory response at 6 mg/kg, iv administered as single dose after 6 hrs by microdialysis technique", "format": "ADME, organism-based", "design": "dose 6 mg/kg, route intravenous"}, "[7]": {"experiment": "Half life in plasma of healthy Wistar rat at 6 mg/kg, iv administered as single dose after 6 hrs by microdialysis technique", "format": "ADME, organism-based", "design": "dose 6 mg/kg, route intravenous"}, "[8]": {"experiment": "Half life in plasma of Wistar rat with LPS-induced severe inflammatory response at 6 mg/kg, iv administered as single dose after 6 hrs by microdialysis technique", "format": "ADME, organism-based", "design": "dose 6 mg/kg, route intravenous"}, "[9]": {"experiment": "Tmax in plasma of healthy Wistar rat at 6 mg/kg, iv administered as single dose after 6 hrs by microdialysis technique", "format": "ADME, organism-based", "design": "dose 6 mg/kg, route intravenous"}, "[10]": {"experiment": "Tmax in plasma of Wistar rat with LPS-induced severe inflammatory response at 6 mg/kg, iv administered as single dose after 6 hrs by microdialysis technique", "format": "ADME, organism-based", "design": "dose 6 mg/kg, route intravenous"}, "[11]": {"experiment": "fTmax in lung of healthy Wistar rat at 6 mg/kg, iv administered as single dose after 6 hrs by microdialysis technique", "format": "ADME, organism-based", "design": "dose 6 mg/kg, route intravenous", "conditions": "read-out: fTmax (converted)"}, "Lung [12]": {"system": "Lung", "experiment": "fCmax in lung of healthy Wistar rat at 6 mg/kg, iv administered as single dose after 6 hrs by microdialysis technique", "format": "ADME, organism-based", "design": "dose 6 mg/kg, route intravenous", "conditions": "in vivo"}, "[13]": {"experiment": "Free AUC (0 to 6 hrs) in skeletal muscle of healthy Wistar rat at 6 mg/kg, iv administered as single dose after 6 hrs by microdialysis technique", "format": "ADME, organism-based, Muscle tissue", "design": "dose 6 mg/kg, route intravenous", "conditions": "in vivo"}, "[14]": {"experiment": "fTmax in skeletal muscle of Wistar rat with LPS-induced severe inflammatory response at 6 mg/kg, iv administered as single dose after 6 hrs by microdialysis technique", "format": "ADME, organism-based, Muscle tissue", "design": "dose 6 mg/kg, route intravenous", "conditions": "read-out: fTmax (converted)"}, "Lung [15]": {"system": "Lung", "experiment": "fCmax in lung of Wistar rat with LPS-induced severe inflammatory response at 6 mg/kg, iv administered as single dose after 6 hrs by microdialysis technique", "format": "ADME, organism-based", "design": "dose 6 mg/kg, route intravenous", "conditions": "in vivo"}, "[16]": {"experiment": "Protein binding in female Sprague-Dawley rat plasma at 30 mg/kg, po for 6 days", "format": "ADME, organism-based", "design": "dose 30 mg/kg, route oral", "conditions": "read-out: PPB (converted)"}, "[17]": {"experiment": "fTmax in skeletal muscle of healthy Wistar rat at 6 mg/kg, iv administered as single dose after 6 hrs by microdialysis technique", "format": "ADME, organism-based, Muscle tissue", "design": "dose 6 mg/kg, route intravenous", "conditions": "read-out: fTmax (converted)"}, "[18]": {"experiment": "fCmax in skeletal muscle of healthy Wistar rat at 6 mg/kg, iv administered as single dose after 6 hrs by microdialysis technique", "format": "ADME, organism-based, Muscle tissue", "design": "dose 6 mg/kg, route intravenous", "conditions": "in vivo"}, "[19]": {"experiment": "Cmax in plasma of healthy Wistar rat at 6 mg/kg, iv administered as single dose after 6 hrs by microdialysis technique", "format": "ADME, organism-based", "design": "dose 6 mg/kg, route intravenous"}, "[20]": {"experiment": "fCmax in skeletal muscle of Wistar rat with LPS-induced severe inflammatory response at 6 mg/kg, iv administered as single dose after 6 hrs by microdialysis technique", "format": "ADME, organism-based, Muscle tissue", "design": "dose 6 mg/kg, route intravenous", "conditions": "in vivo"}, "[21]": {"experiment": "AUC (0 to 6 hrs) in lung of Wistar rat with LPS-induced severe inflammatory response at 6 mg/kg, iv administered as single dose after 6 hrs by microdialysis technique", "format": "ADME, organism-based", "design": "time < 6 hr, dose 6 mg/kg, route intravenous"}, "[22]": {"experiment": "fTmax in lung of Wistar rat with LPS-induced severe inflammatory response at 6 mg/kg, iv administered as single dose after 6 hrs by microdialysis technique", "format": "ADME, organism-based", "design": "dose 6 mg/kg, route intravenous", "conditions": "read-out: fTmax (converted)"}}}
{"molecule": "C[C@@H](c1ncncc1F)[C@](O)(Cn1cncn1)c1ccc(F)cc1F", "note": "[VORICONAZOLE]", "values": [{"measurement": "AUC(0-t) at 6 h", "setting": "[1]", "result": 8450, "unit": "ng·h/mL"}, {"measurement": "AUC(0-t) at 6 h", "setting": "[2]", "result": 19600, "unit": "ng·h/mL"}, {"measurement": "fraction unbound at 144 h", "setting": "[3]", "result": 0.34}, {"measurement": "fAUC", "setting": "Lung [4]", "result": 608, "unit": "mg·min/L"}, {"measurement": "AUC(0-t) at 6 h", "setting": "[5]", "result": 22700, "unit": "ng·h/mL"}, {"measurement": "Cmax", "setting": "[6]", "result": 6300, "unit": "ng/mL"}, {"measurement": "half-life", "setting": "[7]", "result": 10.2, "unit": "h"}, {"measurement": "half-life", "setting": "[8]", "result": 11.3, "unit": "h"}, {"measurement": "Tmax", "setting": "[9]", "result": 0.817, "unit": "h"}, {"measurement": "Tmax", "setting": "[10]", "result": 0.25, "unit": "h"}, {"measurement": "Tmax", "setting": "[11]", "result": 2.28, "unit": "h"}, {"measurement": "fCmax", "setting": "Lung [12]", "result": 2.6, "unit": "mg/L"}, {"measurement": "fAUC", "setting": "[13]", "result": 530, "unit": "mg·min/L"}, {"measurement": "Tmax", "setting": "[14]", "result": 2.17, "unit": "h"}, {"measurement": "fCmax", "setting": "Lung [15]", "result": 2.3, "unit": "mg/L"}, {"measurement": "fraction unbound at 144 h", "setting": "[16]", "result": 0.34}, {"measurement": "Tmax", "setting": "[17]", "result": 3.25, "unit": "h"}, {"measurement": "fCmax", "setting": "[18]", "result": 2.2, "unit": "mg/L"}, {"measurement": "Cmax", "setting": "[19]", "result": 5400, "unit": "ng/mL"}, {"measurement": "fCmax", "setting": "[20]", "result": 2.2, "unit": "mg/L"}, {"measurement": "AUC(0-t) at 6 h", "setting": "[21]", "result": 8170, "unit": "ng·h/mL"}, {"measurement": "Tmax", "setting": "[22]", "result": 1.87, "unit": "h"}]}
